{"source": "patent US20170216439A1", "about": "“OTIC FORMULATIONS FOR THE TREATMENT OF CERUMINOSIS” (Otonomy, Inc., priority 2014, published 2017)", "origin": "cited, not measured here", "key": {"[1]": {"settings": "for efficacy against tinnitus: in vivo"}, "bacterial lesions": {"test_system": "bacterial lesions", "settings": "wild-type C57BL/6 and mutant flake mice"}}}
{"smiles": "CCN(CC)CC(=O)Nc1c(C)cccc1C", "note": "[Lidocaine]", "values": [{"measurement": "reduces or eliminates the noise associated with tinnitus, share of sufferers", "setting": "[1]; administered by IV", "result": "60-80%"}]}
{"smiles": "CNCCC=C1c2ccccc2CCc2ccccc21", "note": "[nortriptyline]", "values": [{"measurement": "efficacy against tinnitus", "setting": "[1]", "result": "demonstrated efficacy"}]}
{"smiles": "CCCCCCCC/C=C\\CCCCCCCC(=O)O", "note": "[oleic acid]", "values": [{"measurement": "inhibitory against S. pyogenes", "setting": "S. pyogenes", "result": "inhibitory"}, {"measurement": "inhibitory against S. aureus", "setting": "S. aureus", "result": "inhibitory"}]}
{"smiles": "CCCCCC/C=C\\CCCCCCCC(=O)O", "note": "[palmitoleate]", "values": [{"measurement": "size of bacterial lesions", "setting": "bacterial lesions", "result": "decrease the size of bacterial lesions"}]}
{"smiles": "CCCCCC/C=C\\CCCCCCCC(=O)O", "note": "[palmitoleic acid]", "values": [{"measurement": "inhibitory against S. pyogenes", "setting": "S. pyogenes", "result": "inhibitory"}, {"measurement": "inhibitory against S. aureus", "setting": "S. aureus", "result": "inhibitory"}]}
{"smiles": "Fc1ccc([C@@H]2CCNC[C@H]2COc2ccc3c(c2)OCO3)cc1", "note": "[paroxetine]", "values": [{"measurement": "efficacy against tinnitus", "setting": "[1]", "result": "demonstrated efficacy"}]}
{"smiles": "CN[C@H]1CC[C@@H](c2ccc(Cl)c(Cl)c2)c2ccccc21", "note": "[sertraline]", "values": [{"measurement": "efficacy against tinnitus", "setting": "[1]", "result": "demonstrated efficacy"}]}
